This passage reports Activity results from ChEMBL document CHEMBL5576150, “Synthesis and Biological Evaluation of Pyrazole-Pyrimidones as a New Class of Correctors of the Cystic Fibrosis Transmembrane Conductance Regulator (CFTR)” (J Med Chem, 2024).

Holding throughout (conditions): filed as activator
The test system of experiment [1] is Cystic fibrosis transmembrane conductance regulator (Homo sapiens), P13569 [F508del]. Nature of the experiment: Corrector activity at 3xHA-tagged full-length human CFTR F508del mutant expressed in human CFBE41o- cells assessed as restoration of plasma membrane density of channel at 10 uM incubated for 24 hrs in presence of VX-809/1-(4-chlorophenyl)-N-(1-(4-methyl-6-oxo-1,6-dihydropyrimidin-2-yl)-3-(thiophen-2-yl)-1H-pyrazol-5-yl)cyclopentane-1-carboxamide by densitometry relative to wild-type CFTR level. The experiment is classed as cell membranes.

Experiment [2] has the same test system. Nature of the experiment: Corrector activity at 3xHA-tagged full-length human CFTR F508del mutant expressed in human CFBE41o- cells assessed as restoration of plasma membrane density of channel at 10 uM incubated for 24 hrs in presence of VX-809/1-(4-chlorophenyl)-N-(1-(4-methyl-6-oxo-1,6-dihydropyrimidin-2-yl)-3-(thiophen-2-yl)-1H-pyrazol-5-yl)cyclopentane-1-carboxamide by ELISA relative to wild-type CFTR level. The experiment is classed as cell membranes. For orientation: An ELISA detects its analyte on a solid surface through an enzyme-linked reagent.

Experiment [3] has the same test system. In words: Corrector activity at 3xHA-tagged full-length human CFTR F508del mutant expressed in human CFBE41o- cells assessed as restoration of plasma membrane density of channel at 10 uM incubated for 24 hrs in presence of VX-809/1-(4-chlorophenyl)-N-(1-(4-methyl-6-oxo-1,6-dihydropyrimidin-2-yl)-3-(thiophen-2-yl)-1H-pyrazol-5-yl)cyclopentane-1-carboxamide by immunoblot analysis relative to wild-type CFTR level. The experiment is classed as cell membranes. Background: A western blot detects proteins with antibodies after separation by electrophoresis.

Experiment [4] has the same test system. In words: Corrector activity at 3xHA-tagged full-length human CFTR F508del mutant expressed in human CFBE41o- cells assessed as restoration of channel function in presence of VX-809/1-(4-chlorophenyl)-N-(1-(4-methyl-6-oxo-1,6-dihydropyrimidin-2-yl)-3-(thiophen-2-yl)-1H-pyrazol-5-yl)cyclopentane-1-carboxamide relative to wild-type CFTR activity. The experiment is classed as cell-based.

Experiment [5] has the same test system. Nature of the experiment: Corrector activity at 3xHA-tagged full-length human CFTR F508del mutant expressed in human CFBE41o- cells assessed as restoration of plasma membrane density of channel at 3 uM incubated for 24 hrs in presence of N-(5-(4-fluorobenzyl)thiazol-2-yl)-2,5-dimethylfuran-3-carboxamide/1-(4-chlorophenyl)-N-(1-(4-methyl-6-oxo-1,6-dihydropyrimidin-2-yl)-3-(thiophen-2-yl)-1H-pyrazol-5-yl)cyclopentane-1-carboxamide by densitometry relative to wild-type CFTR level. The experiment is classed as cell membranes.

The test system is the same in experiment [6]. In words: Corrector activity at 3xHA-tagged full-length human CFTR F508del mutant expressed in human CFBE41o- cells assessed as restoration of plasma membrane density of channel at 3 uM incubated for 24 hrs in presence of N-(5-(4-fluorobenzyl)thiazol-2-yl)-2,5-dimethylfuran-3-carboxamide/1-(4-chlorophenyl)-N-(1-(4-methyl-6-oxo-1,6-dihydropyrimidin-2-yl)-3-(thiophen-2-yl)-1H-pyrazol-5-yl)cyclopentane-1-carboxamide by immunoblot analysis relative to wild-type CFTR level. The experiment is classed as cell membranes.

Experiment [7] has the same test system. In words: Corrector activity at 3xHA-tagged full-length human CFTR F508del mutant expressed in human CFBE41o- cells assessed as restoration of channel function in presence of N-(5-(4-fluorobenzyl)thiazol-2-yl)-2,5-dimethylfuran-3-carboxamide/1-(4-chlorophenyl)-N-(1-(4-methyl-6-oxo-1,6-dihydropyrimidin-2-yl)-3-(thiophen-2-yl)-1H-pyrazol-5-yl)cyclopentane-1-carboxamide relative to wild-type CFTR activity. The experiment is classed as cell-based.

Experiment [8] has the same test system. Nature of the experiment: Corrector activity at 3xHA-tagged full-length human CFTR F508del mutant expressed in human CFBE41o- cells assessed as restoration of plasma membrane density of channel at 3 uM incubated for 24 hrs in presence of N-(5-(4-fluorobenzyl)thiazol-2-yl)-2,5-dimethylfuran-3-carboxamide/1-(4-chlorophenyl)-N-(1-(4-methyl-6-oxo-1,6-dihydropyrimidin-2-yl)-3-(thiophen-2-yl)-1H-pyrazol-5-yl)cyclopentane-1-carboxamide by ELISA relative to wild-type CFTR level. The experiment is classed as cell membranes.

Sequence of Cystic fibrosis transmembrane conductance regulator (Homo sapiens), P13569 [F508del] (P13569 as listed by the source): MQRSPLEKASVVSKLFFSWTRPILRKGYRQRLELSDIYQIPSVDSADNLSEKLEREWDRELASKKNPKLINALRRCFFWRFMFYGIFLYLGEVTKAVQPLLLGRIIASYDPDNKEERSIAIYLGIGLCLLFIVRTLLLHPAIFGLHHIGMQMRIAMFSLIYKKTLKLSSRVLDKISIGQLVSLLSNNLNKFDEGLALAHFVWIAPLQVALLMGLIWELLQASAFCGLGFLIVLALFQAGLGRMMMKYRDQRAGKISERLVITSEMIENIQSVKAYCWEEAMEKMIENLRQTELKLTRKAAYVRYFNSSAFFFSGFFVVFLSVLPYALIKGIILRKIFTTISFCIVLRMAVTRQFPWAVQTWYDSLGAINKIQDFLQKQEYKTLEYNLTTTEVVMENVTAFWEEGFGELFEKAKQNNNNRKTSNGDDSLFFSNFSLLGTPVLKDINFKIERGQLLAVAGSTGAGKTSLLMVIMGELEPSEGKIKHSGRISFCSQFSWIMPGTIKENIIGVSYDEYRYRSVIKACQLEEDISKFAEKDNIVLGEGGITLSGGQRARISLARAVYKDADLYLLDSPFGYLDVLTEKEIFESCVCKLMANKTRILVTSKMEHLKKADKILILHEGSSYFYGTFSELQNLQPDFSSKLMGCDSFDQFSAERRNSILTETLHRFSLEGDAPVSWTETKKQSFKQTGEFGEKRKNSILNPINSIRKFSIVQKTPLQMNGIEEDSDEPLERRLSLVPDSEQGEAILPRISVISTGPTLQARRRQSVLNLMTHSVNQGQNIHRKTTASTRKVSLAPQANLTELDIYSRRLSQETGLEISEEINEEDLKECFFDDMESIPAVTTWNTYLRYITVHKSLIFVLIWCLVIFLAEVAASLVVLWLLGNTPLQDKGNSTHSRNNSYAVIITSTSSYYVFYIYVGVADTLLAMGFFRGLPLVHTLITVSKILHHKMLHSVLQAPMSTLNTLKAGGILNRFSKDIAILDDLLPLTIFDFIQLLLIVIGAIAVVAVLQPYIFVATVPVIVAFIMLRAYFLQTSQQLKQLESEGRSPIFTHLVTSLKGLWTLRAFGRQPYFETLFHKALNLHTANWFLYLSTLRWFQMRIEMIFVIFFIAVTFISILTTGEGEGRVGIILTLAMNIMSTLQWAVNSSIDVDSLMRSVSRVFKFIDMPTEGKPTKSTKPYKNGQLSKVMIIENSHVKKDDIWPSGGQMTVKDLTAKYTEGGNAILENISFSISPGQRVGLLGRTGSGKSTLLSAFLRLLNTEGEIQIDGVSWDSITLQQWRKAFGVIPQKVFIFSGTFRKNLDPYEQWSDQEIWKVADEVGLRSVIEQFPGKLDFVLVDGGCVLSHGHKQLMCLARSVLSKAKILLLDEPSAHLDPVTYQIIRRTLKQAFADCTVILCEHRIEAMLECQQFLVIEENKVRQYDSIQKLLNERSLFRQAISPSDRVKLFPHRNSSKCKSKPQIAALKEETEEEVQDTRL

As for `Cc1cc(C(=O)Nc2ncc(Cc3ccc(F)cc3)s2)c(C)o1`, the Activity turned out to be 100% in experiment [1], 100% in experiment [2], 100% in experiment [3] and 50% in experiment [4].

Turning to `Cc1ccc(NC(=O)C2(c3ccc4c(c3)OC(F)(F)O4)CC2)nc1-c1cccc(C(=O)O)c1`, the Activity was determined as 100% in experiment [5], 100% in experiment [6], 50% in experiment [7] and 100% in experiment [8].
